Consider 27 compounds from US10721933B2, “Pesticidally active semi-carbazones and thiosemicarbazones derivatives” (Syngenta Participations AG, priority 2015, dated 2020).

The subject of one data set is Diabrotica balteata. Description: Diabrotica balteata (corn root worm), sprayed maize sprouts, L2 larvae. The class given is in vivo. The settings on record: 96 h, application rate of 200 ppm, 4 days after infestation, in comparison to untreated samples, read-out: effect in at least one of the two categories (mortality or growth inhibition). As to the method: Example B3: Diabrotica balteata (Corn Root Worm)
Maize sprouts, placed on an agar layer in 24-well microtiter plates were treated with aqueous test solutions prepared from 10,000 ppm DMSO stock solutions by spraying. After drying, the plates were infested with L2 larvae (6 to 10 per well). The samples were assessed for mortality and growth inhibition in comparison to untreated samples 4 days after infestation.

In another data set the test system is Plutella xylostella. The data set can be described thus: Plutella xylostella (diamond back moth), treated artificial diet, L2 larvae. To be noted: 120 h, application rate of 200 ppm, 5 days after infestation, in comparison to untreated samples, read-out: effect in at least one of the two categories (mortality or growth inhibition). Format: in vivo. As to the method: Example B2: Plutella xylostella (Diamond Back Moth)
24-well microtiter plates with artificial diet were treated with aqueous test solutions prepared from 10,000 ppm DMSO stock solutions by pipetting. After drying, the plates were infested with L2 larvae (10 to 15 per well). The samples were assessed for mortality and growth inhibition in comparison to untreated samples 5 days after infestation.

In the next data set the test system is Spodoptera littoralis. The data set can be described thus: Spodoptera littoralis (Egyptian cotton leaf worm), sprayed cotton leaf discs, L1 larvae. Format: in vivo. To be noted: foliar, 72 h, application rate of 200 ppm, 3 days after infestation, in comparison to untreated samples, read-out: control (at least one of mortality, anti-feedant effect, growth inhibition). As to the method: Example B1: Spodoptera littoralis (Egyptian Cotton Leaf Worm)
Cotton leaf discs were placed on agar in 24-well microtiter plates and sprayed with aqueous test solutions prepared from 10,000 ppm DMSO stock solutions. After drying, the leaf discs were infested with five L1 larvae. The samples were assessed for mortality, anti-feedant effect, and growth inhibition in comparison to untreated samples 3 days after infestation. Control of Spodoptera littoralis by a test sample is when at least one of mortality, anti-feedant effect, and growth inhibition is higher than the untreated sample.

`Cc1cccc(C)c1NC(=S)N/N=C/c1ccc2sc(-c3ccc(OC(F)(F)F)cc3)nc2c1` [Compound P13, 1-(2,6-dimethylphenyl)-3-[(E)-[2-[4-(trifluoromethoxy)phenyl]-1,3-benzothiazol-5-yl]methyleneamino]thiourea]: the percent effect (mortality or growth inhibition) at 200 ppm with Diabrotica balteata and in the data set with Plutella xylostella was no less than 80% throughout.
Consider `Cc1cccc(C)c1NC(=S)N/N=C/c1ccc2c(c1)C(=O)N(c1ccc(OC(F)(F)F)cc1)C2=O` [Compound P4, 1-(2,6-dimethylphenyl)-3-[(E)-[1,3-dioxo-2-[4-(trifluoromethoxy)phenyl]isoindolin-5-yl]methyleneamino]thiourea], for which, in the data set on Plutella xylostella, the percent effect (mortality or growth inhibition) at 200 ppm is no less than 80%.
The same measure, in the same setting: the result for `CC(C)c1ccccc1NC(=S)N/N=C/c1ccc2c(c1)C(=O)N(c1ccc(OC(F)(F)F)cc1)C2=O` [Compound P12] reads no less than 80%.
As to `Cc1cccc(C)c1NC(=S)N/N=C/c1ccc2cn(-c3ccc(OC(F)(F)F)cc3)nc2c1` [Compound P1, N-(2,6-dimethylphenyl)-2-((2-(4-(trifluoromethoxy)phenyl)-2H-indazol-6-yl)methylene)hydrazinecarbothioamide], the percent effect (mortality or growth inhibition) at 200 ppm in the data set with Diabrotica balteata and in the data set with Plutella xylostella was no less than 80% each time. Also, the percent control (mortality, anti-feedant effect or growth inhibition) at 200 ppm in the data set with Spodoptera littoralis is no less than 80%.
Consider `Cc1cccc(C)c1NC(=S)N/N=C/c1ccc2c(cnn2-c2ccc(OC(F)(F)F)cc2)c1` [Compound P21, 1-(2,6-dimethylphenyl)-3-[(E)-[1-[4-(trifluoromethoxy)phenyl]indazol-5-yl]methyleneamino]thiourea], for which the percent effect (mortality or growth inhibition) at 200 ppm with Diabrotica balteata was no less than 80%. For the same compound, the percent control (mortality, anti-feedant effect or growth inhibition) at 200 ppm with Spodoptera littoralis was no less than 80%.
Take `CC(C)c1ccccc1NC(=S)N/N=C/c1ccc2c(cnn2-c2ccc(OC(F)(F)F)cc2)c1` [Compound P22]: the percent effect (mortality or growth inhibition) at 200 ppm in the data set on Plutella xylostella was no less than 80%.
`CC(C)c1ccccc1NC(=O)N/N=C/c1ccc2c(cnn2-c2ccc(OC(F)(F)F)cc2)c1` [Compound P23] came in with a melting point of 207 to 213 °C.
With `Cc1cccc(C)c1NC(=O)N/N=C/c1ccc2nc(-c3ccc(OC(F)(F)F)cc3)cn2c1` [Compound P18, 1-(2,6-dimethylphenyl)-3-[(E)-[2-[4-(trifluoromethoxy)phenyl]imidazo[1,2-a]pyridin-6-yl]methyleneamino]urea], the percent effect (mortality or growth inhibition) at 200 ppm in the data set with Plutella xylostella was no less than 80%. Also, in the data set with Spodoptera littoralis, the percent control (mortality, anti-feedant effect or growth inhibition) at 200 ppm is no less than 80%.
`CC(C)c1ccccc1NC(=O)N/N=C/c1ccc2nc(-c3ccc(OC(F)(F)F)cc3)cn2c1` [Compound P19]: the percent effect (mortality or growth inhibition) at 200 ppm in the data set with Plutella xylostella is no less than 80%. Also, the percent control (mortality, anti-feedant effect or growth inhibition) at 200 ppm with Spodoptera littoralis is no less than 80%.
Turning to `CC(C)c1ccccc1NC(=O)N/N=C/c1ccc2c(c1)nc(-c1ccc(OC(F)(F)F)cc1)n2C` [Compound P31], the percent effect (mortality or growth inhibition) at 200 ppm with Plutella xylostella is no less than 80%. Besides, the percent control (mortality, anti-feedant effect or growth inhibition) at 200 ppm with Spodoptera littoralis is no less than 80%.
As to `CC(C)c1ccccc1NC(=S)N/N=C/c1ccc2nc(-c3ccc(OC(F)(F)F)cc3)n(C)c2c1` [Compound P34], the percent effect (mortality or growth inhibition) at 200 ppm in the data set with Plutella xylostella is no less than 80%. Moreover, the percent control (mortality, anti-feedant effect or growth inhibition) at 200 ppm in the data set with Spodoptera littoralis was no less than 80%.
Consider `Cc1cccc(C)c1NC(=S)N/N=C/c1ccc2nn(-c3ccc(OC(F)(F)F)cc3)cc2c1` [Compound P25, 1-(2,6-dimethylphenyl)-3-[(E)-[2-[4-(trifluoromethoxy)phenyl]indazol-5-yl]methyleneamino]thiourea], for which the melting point fell in the range of 225 to 234 °C.
Consider `CC(C)c1ccccc1NC(=O)N/N=C/c1ccc2sc(-c3ccc(OC(F)(F)F)cc3)nc2c1` [Compound P15], for which the percent effect (mortality or growth inhibition) at 200 ppm in the data set with Diabrotica balteata and in the data set on Plutella xylostella was no less than 80% each time.
On to `Cc1cccc(C)c1NC(=O)N/N=C/c1ccc2c(c1)nc(-c1ccc(OC(F)(F)F)cc1)n2C` [Compound P27, 1-(2,6-dimethylphenyl)-3-[(E)-[1-methyl-2-[4-(trifluoromethoxy)phenyl]benzimidazol-5-yl]methyleneamino]urea], for which, in the data set on Spodoptera littoralis, the percent control (mortality, anti-feedant effect or growth inhibition) at 200 ppm is no less than 80%.
Regarding `CC(C)c1ccccc1NC(=O)N/N=C/c1ccc2nc(-c3ccc(OC(F)(F)F)cc3)n(C)c2c1` [Compound P32], the percent effect (mortality or growth inhibition) at 200 ppm in the data set with Plutella xylostella was no less than 80%. Also, the percent control (mortality, anti-feedant effect or growth inhibition) at 200 ppm in the data set on Spodoptera littoralis is no less than 80%.
For `CC(C)c1ccccc1NC(=S)N/N=C/c1ccc2sc(-c3ccc(OC(F)(F)F)cc3)nc2c1` [Compound P14], the percent effect (mortality or growth inhibition) at 200 ppm with Diabrotica balteata and in the data set with Plutella xylostella was no less than 80% throughout.
As for `Cc1cccc(C)c1NC(=S)N/N=C/c1ccc2nc(-c3ccc(OC(F)(F)F)cc3)n(C)c2c1` [Compound P30], the percent effect (mortality or growth inhibition) at 200 ppm with Plutella xylostella was no less than 80%.
As for `CC(C)c1ccccc1NC(=S)N/N=C/c1ccc2nc(Oc3ccc(OC(F)(F)F)cc3)ccc2c1` [Compound P2, N-(2-isopropylphenyl)-2-((2-(4-(trifluoromethoxy)phenoxy)quinolin-6-yl)methylene)hydrazinecarbothioamide], the percent effect (mortality or growth inhibition) at 200 ppm in the data set with Diabrotica balteata and in the data set on Plutella xylostella was no less than 80% throughout. For the same compound, the percent control (mortality, anti-feedant effect or growth inhibition) at 200 ppm in the data set on Spodoptera littoralis is no less than 80%.
In turn, `Cc1cccc(C)c1NC(=O)N/N=C/c1ccc2nc(-c3ccc(OC(F)(F)F)cc3)n(C)c2c1` [Compound P28, 1-(2,6-dimethylphenyl)-3-[(E)-[3-methyl-2-[4-(trifluoromethoxy)phenyl]benzimidazol-5-yl]methyleneamino]urea] came in with a melting point of 218 to 219 °C.
With `CC(C)c1ccccc1NC(=O)N/N=C/c1ccc2cn(-c3ccc(OC(F)(F)F)cc3)nc2c1` [Compound P35], the percent effect (mortality or growth inhibition) at 200 ppm in the data set with Diabrotica balteata and in the data set with Plutella xylostella was no less than 80% in each case. Moreover, in the data set on Spodoptera littoralis, the percent control (mortality, anti-feedant effect or growth inhibition) at 200 ppm was no less than 80%.
On to `Cc1cccc(C)c1NC(=S)N/N=C/c1ccc2nc(-c3ccc(OC(F)(F)F)cc3)cn2c1` [Compound P17, 1-(2,6-dimethylphenyl)-3-[(E)-[2-[4-(trifluoromethoxy)phenyl]imidazo[1,2-a]pyridin-6-yl]methyleneamino]thiourea], for which the percent effect (mortality or growth inhibition) at 200 ppm in the data set on Diabrotica balteata and with Plutella xylostella was no less than 80% in each case. The percent control (mortality, anti-feedant effect or growth inhibition) at 200 ppm in the data set on Spodoptera littoralis is no less than 80%.
In the case of `CC(C)c1ccccc1NC(=S)N/N=C/c1ccc2cn(-c3ccc(OC(F)(F)F)cc3)nc2c1` [Compound P36], the percent effect (mortality or growth inhibition) at 200 ppm in the data set on Diabrotica balteata and in the data set on Plutella xylostella was no less than 80% each time. In addition, in the data set with Spodoptera littoralis, the percent control (mortality, anti-feedant effect or growth inhibition) at 200 ppm is no less than 80%.
Take `CC(C)c1ccccc1NC(=S)N/N=C/c1ccc2c(c1)nc(-c1ccc(OC(F)(F)F)cc1)n2C` [Compound P33]: the percent effect (mortality or growth inhibition) at 200 ppm in the data set on Plutella xylostella is no less than 80%. In addition, the percent control (mortality, anti-feedant effect or growth inhibition) at 200 ppm with Spodoptera littoralis is no less than 80%.
As to `O=C1c2ccc(/C=N/NC(=S)Nc3ccccc3C(F)(F)F)cc2C(=O)N1c1ccc(OC(F)(F)F)cc1` [Compound P11], the melting point lay in the range of 235 to 236 °C.
`Cc1cccc(C)c1NC(=S)N/N=C/c1ccc2c(c1)nc(-c1ccc(OC(F)(F)F)cc1)n2C` [Compound P29]: the percent effect (mortality or growth inhibition) at 200 ppm in the data set on Diabrotica balteata and in the data set with Plutella xylostella was no less than 80% each time. Moreover, in the data set with Spodoptera littoralis, the percent control (mortality, anti-feedant effect or growth inhibition) at 200 ppm was no less than 80%.
Compound `CC(C)c1ccccc1NC(=O)N/N=C/c1ccc2c(c1)C(=O)N(c1ccc(OC(F)(F)F)cc1)C2=O` [Compound P6] returned a melting point of 239 to 240 °C.
On the same count and under the same terms, the result for `Cc1cccc(C)c1NC(=O)N/N=C/c1ccc2c(cnn2-c2ccc(OC(F)(F)F)cc2)c1` [Compound P24, 1-(2,6-dimethylphenyl)-3-[(E)-[1-[4-(trifluoromethoxy)phenyl]indazol-5-yl]methyleneamino]urea] reads 227 to 233 °C.
